According to patent US10485235B2, “Aryloxypyrimidinyl ethers as herbicides” (FMC Corporation, priority 2015, dated 2019):

Columns and labels:
Format in all cases: in vivo
[1] = system: ragweed (common ragweed, Ambrosia elatior); assay: Test A postemergence, ragweed; conditions: postemergence, 0 to 100 scale, 0 is no effect, 100 is complete control, approximately 10 days
Procedure, shortened: (§1)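 Test chemicals in a solvent/surfactant mixture were applied as a preemergence directed soil spray on seeded loam–sand, or postemergence to plants 2–10 cm tall at the one- to two-leaf stage. After roughly 10 days in a greenhouse, injury was visually rated versus untreated controls on a 0 (no effect) to 100 (complete control) scale.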

[2] = system: barnyardgrass (Echinochloa crus-galli); assay: Test A postemergence, barnyardgrass; conditions: postemergence, 0 to 100 scale, 0 is no effect, 100 is complete control, approximately 10 days
Procedure, shortened: as §1

[3] = system: ryegrass, Italian (Italian ryegrass, Lolium multiflorum); assay: Test A postemergence, Italian ryegrass; conditions: postemergence, 0 to 100 scale, 0 is no effect, 100 is complete control, approximately 10 days
Procedure, shortened: as §1

[4] = system: barnyardgrass (Echinochloa crus-galli); assay: Test B flooded paddy test, barnyardgrass; conditions: 250 g ai/ha, Flood; visual rating after 13 to 15 days; scale 0 to 100, 0 is no effect, 100 is complete control
Procedure, shortened: (§2)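 Plants grown to 2-leaf stage, pots flooded to 3 cm above soil and compound applied directly to paddy water, depth maintained throughout. After 13-15 days in greenhouse, visual rating against untreated controls on 0-100 scale (0 no effect, 100 complete control).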

[5] = system: foxtail, giant (giant foxtail, Setaria faberii); assay: Test A postemergence, giant foxtail; conditions: postemergence, 0 to 100 scale, 0 is no effect, 100 is complete control, approximately 10 days
Procedure, shortened: as §1

kochia (Kochia scoparia) [6] = assay: Test A postemergence, kochia; conditions: postemergence, 0 to 100 scale, 0 is no effect, 100 is complete control, approximately 10 days
Procedure, shortened: as §1

[7] = system: pigweed (Amaranthus retroflexus); assay: Test A postemergence, pigweed; conditions: postemergence, 0 to 100 scale, 0 is no effect, 100 is complete control, approximately 10 days
Procedure, shortened: as §1

[8] = system: barnyardgrass (Echinochloa crus-galli); assay: Test A preemergence, barnyardgrass; conditions: Preemergence, 0 to 100 scale (0 no effect, 100 complete control)
Procedure, shortened: as §1

[9] = system: ryegrass, Italian (Italian ryegrass, Lolium multiflorum); assay: Test A preemergence, Italian ryegrass; conditions: Preemergence, 0 to 100 scale (0 no effect, 100 complete control)
Procedure, shortened: as §1

corn (Zea mays) = assay: Test A postemergence, corn; conditions: postemergence, 0 to 100 scale, 0 is no effect, 100 is complete control, approximately 10 days
Procedure, shortened: as §1

[10] = system: galium (catchweed bedstraw, Galium aparine); assay: Test A postemergence, galium; conditions: postemergence, 0 to 100 scale, 0 is no effect, 100 is complete control, approximately 10 days
Procedure, shortened: as §1

[11] = system: foxtail, giant (giant foxtail, Setaria faberii); assay: Test A preemergence, giant foxtail; conditions: Preemergence, 0 to 100 scale (0 no effect, 100 complete control)
Procedure, shortened: as §1

[12] = system: ragweed (common ragweed, Ambrosia elatior); assay: Test A preemergence, ragweed; conditions: Preemergence, 0 to 100 scale (0 no effect, 100 complete control)
Procedure, shortened: as §1

[13] = system: wheat (Triticum aestivum); assay: Test A postemergence, wheat; conditions: postemergence, 0 to 100 scale, 0 is no effect, 100 is complete control, approximately 10 days
Procedure, shortened: as §1

kochia (Kochia scoparia) [14] = assay: Test A preemergence, kochia; conditions: Preemergence, 0 to 100 scale (0 no effect, 100 complete control)
Procedure, shortened: as §1

[15] = system: blackgrass (Alopecurus myosuroides); assay: Test A postemergence, blackgrass; conditions: postemergence, 0 to 100 scale, 0 is no effect, 100 is complete control, approximately 10 days
Procedure, shortened: as §1

[16] = system: sedge, umbrella (small-flower umbrella sedge, Cyperus difformis); assay: Test B flooded paddy test, umbrella sedge; conditions: 250 g ai/ha, Flood; visual rating after 13 to 15 days; scale 0 to 100, 0 is no effect, 100 is complete control
Procedure, shortened: as §2

[17] = system: pigweed (Amaranthus retroflexus); assay: Test A preemergence, pigweed; conditions: Preemergence, 0 to 100 scale (0 no effect, 100 complete control)
Procedure, shortened: as §1

rice (Oryza sativa) = assay: Test B flooded paddy test, rice; conditions: 250 g ai/ha, Flood; visual rating after 13 to 15 days; scale 0 to 100, 0 is no effect, 100 is complete control
Procedure, shortened: as §2

[18] = system: ducksalad (Heteranthera limosa); assay: Test B flooded paddy test, ducksalad; conditions: 250 g ai/ha, Flood; visual rating after 13 to 15 days; scale 0 to 100, 0 is no effect, 100 is complete control
Procedure, shortened: as §2

Row | Structure (SMILES) | Plant response rating, Ragweed ([1]; 31 g ai/ha) | Plant response rating, Ragweed ([1]; 125 g ai/ha) | Plant response rating, Barnyardgrass ([2]; 31 g ai/ha) | Plant response rating, Barnyardgrass ([2]; 125 g ai/ha) | Plant response rating, Ryegrass, Italian ([3]; 31 g ai/ha) | Plant response rating, Ryegrass, Italian ([3]; 125 g ai/ha) | Plant response rating, Barnyardgrass [4] | Plant response rating, Foxtail, Giant ([5]; 31 g ai/ha) | Plant response rating, Foxtail, Giant ([5]; 125 g ai/ha) | Plant response rating, Kochia (kochia (Kochia scoparia) [6]; 31 g ai/ha) | Plant response rating, Kochia (kochia (Kochia scoparia) [6]; 125 g ai/ha) | Plant response rating, Pigweed ([7]; 31 g ai/ha) | Plant response rating, Pigweed ([7]; 125 g ai/ha) | Plant response rating, Barnyardgrass ([8]; 31 g ai/ha) | Plant response rating, Barnyardgrass ([8]; 125 g ai/ha) | Plant response rating, Ryegrass, Italian ([9]; 31 g ai/ha) | Plant response rating, Ryegrass, Italian ([9]; 125 g ai/ha) | Plant response rating, Corn (corn (Zea mays); 31 g ai/ha) | Plant response rating, Corn (corn (Zea mays); 125 g ai/ha) | Plant response rating, Galium ([10]; 31 g ai/ha) | other results
1 | N#Cc1cccc(Oc2ncc(F)cn2)c1OCCCF [Compound 30] | 0 | 10 | 0 | 10 | 30 | 40 | 0 | 0 | 0 | 0 | 10 | 0 | 0 | 0 | 20 | 0 | 20 | 0 | 0 | 0 | Plant response rating, Galium ([10]; 125 g ai/ha): 0; Plant response rating, Foxtail, Giant ([11]; 31 g ai/ha): 10; Plant response rating, Foxtail, Giant ([11]; 125 g ai/ha): 30; Plant response rating, Ragweed ([12]; 31 g ai/ha): 20; Plant response rating, Ragweed ([12]; 125 g ai/ha): 30; Plant response rating, Wheat ([13]; 31 g ai/ha): 0; Plant response rating, Wheat ([13]; 125 g ai/ha): 0; Plant response rating, Kochia (kochia (Kochia scoparia) [14]; 31 g ai/ha): 90; Plant response rating, Kochia (kochia (Kochia scoparia) [14]; 125 g ai/ha): 90; Plant response rating, Blackgrass ([15]; 31 g ai/ha): 0; Plant response rating, Blackgrass ([15]; 125 g ai/ha): 0; Plant response rating, Sedge, Umbrella [16]: 40; Plant response rating, Pigweed ([17]; 31 g ai/ha): 50; Plant response rating, Pigweed ([17]; 125 g ai/ha): 80; Plant response rating, Rice (rice (Oryza sativa)): 0; Plant response rating, Ducksalad [18]: 30
2 | N#Cc1cccc(Oc2ncc(Cl)cn2)c1OCc1ccc(Cl)cn1 [Compound 6] | 0 | 0 | 0 | 10 | 0 | 0 | 0 | 0 | 10 | 10 | 60 | 20 | 80 | 0 | 0 | 0 | 0 | 10 | 20 | 30 | Plant response rating, Galium ([10]; 125 g ai/ha): 40; Plant response rating, Foxtail, Giant ([11]; 31 g ai/ha): 0; Plant response rating, Foxtail, Giant ([11]; 125 g ai/ha): 20; Plant response rating, Ragweed ([12]; 31 g ai/ha): 0; Plant response rating, Ragweed ([12]; 125 g ai/ha): 0; Plant response rating, Wheat ([13]; 31 g ai/ha): 0; Plant response rating, Wheat ([13]; 125 g ai/ha): 0; Plant response rating, Kochia (kochia (Kochia scoparia) [14]; 31 g ai/ha): 0; Plant response rating, Kochia (kochia (Kochia scoparia) [14]; 125 g ai/ha): 0; Plant response rating, Blackgrass ([15]; 31 g ai/ha): 0; Plant response rating, Blackgrass ([15]; 125 g ai/ha): 10; Plant response rating, Sedge, Umbrella [16]: 0; Plant response rating, Pigweed ([17]; 31 g ai/ha): 10; Plant response rating, Pigweed ([17]; 125 g ai/ha): 90; Plant response rating, Rice (rice (Oryza sativa)): 0; Plant response rating, Ducksalad [18]: 0
3 | FC(F)(F)C(F)(F)CCCOc1c(Br)cccc1Oc1ncc(Cl)cn1 [Compound 49] | 10 | 20 | 0 | 0 | 0 | 20 | 0 | 0 | 10 | 0 | 30 | 10 | 60 | 0 | 10 | 0 | 0 | 10 | 10 | 10 | Plant response rating, Galium ([10]; 125 g ai/ha): 30; Plant response rating, Foxtail, Giant ([11]; 31 g ai/ha): 0; Plant response rating, Foxtail, Giant ([11]; 125 g ai/ha): 40; Plant response rating, Ragweed ([12]; 31 g ai/ha): 0; Plant response rating, Ragweed ([12]; 125 g ai/ha): 0; Plant response rating, Wheat ([13]; 31 g ai/ha): 0; Plant response rating, Wheat ([13]; 125 g ai/ha): 0; Plant response rating, Kochia (kochia (Kochia scoparia) [14]; 31 g ai/ha): 0; Plant response rating, Kochia (kochia (Kochia scoparia) [14]; 125 g ai/ha): 0; Plant response rating, Blackgrass ([15]; 31 g ai/ha): 0; Plant response rating, Blackgrass ([15]; 125 g ai/ha): 0; Plant response rating, Sedge, Umbrella [16]: 0; Plant response rating, Pigweed ([17]; 31 g ai/ha): 0; Plant response rating, Pigweed ([17]; 125 g ai/ha): 0; Plant response rating, Rice (rice (Oryza sativa)): 0; Plant response rating, Ducksalad [18]: 0
4 | Cc1cccc(Oc2ncc(Cl)cn2)c1OCCCF [Compound 57] | 0 | 0 | 0 | 0 | 0 | 0 | 0 | 0 | 10 | 0 | 20 | 10 | 20 | 0 | 20 | 0 | 0 | 0 | 10 | 0 | Plant response rating, Galium ([10]; 125 g ai/ha): 0; Plant response rating, Foxtail, Giant ([11]; 31 g ai/ha): 0; Plant response rating, Foxtail, Giant ([11]; 125 g ai/ha): 30; Plant response rating, Ragweed ([12]; 31 g ai/ha): 0; Plant response rating, Ragweed ([12]; 125 g ai/ha): 0; Plant response rating, Wheat ([13]; 31 g ai/ha): 0; Plant response rating, Wheat ([13]; 125 g ai/ha): 0; Plant response rating, Kochia (kochia (Kochia scoparia) [14]; 31 g ai/ha): 0; Plant response rating, Kochia (kochia (Kochia scoparia) [14]; 125 g ai/ha): 20; Plant response rating, Blackgrass ([15]; 31 g ai/ha): 0; Plant response rating, Blackgrass ([15]; 125 g ai/ha): 0; Plant response rating, Sedge, Umbrella [16]: 30; Plant response rating, Pigweed ([17]; 31 g ai/ha): 0; Plant response rating, Pigweed ([17]; 125 g ai/ha): 60; Plant response rating, Rice (rice (Oryza sativa)): 0; Plant response rating, Ducksalad [18]: 70
